Assays:
[1] = test system: maximal electroshock (MES) induced seizure; assay: maximal electroshock (MES) seizure test, rats (po); format: in vivo; conditions: for ED50: Rattus norvegicus
From the text: (§1) Compounds were screened for anticonvulsant activity in both male albino Carthworth Farms No. 1 mice (ip route) and male albino Sprague Dawley rats [oral (po) route]. Activity was established using the electrical (maximal electroshock or MES) test. In the MES test, a drop of electrolyte solution with anesthetic (0.5% butacaine hemisulfate in 0.9% sodium chloride) was used in the eyes of the animals prior to positioning the corneal electrodes and delivery of current. […] Protection endpoints were defined as the abolition of the hind limb tonic extensor component of the induced seizure. In mice, effects of compounds on forced spontaneous motor activity were determined using the rotorod test. […] Normally under these conditions, mice maintain their balance almost indefinitely. In rats, motor impairment is assessed by observing for overt evidence of ataxia, abnormal gait and stance, and/or loss of placing response and muscle tone. In the mouse identification screening study all compounds were given at three dose levels (30, 100, 300 mg/kg) and two time periods (0.5 hours, 4 hours). Typically, in the MES seizures test one animal was tested at 30 mg/kg and 300 mg/kg, and three animals at 100 mg/kg. In the rotored toxicity test four animals were tested at 30 mg/kg, and 300 mg/kg, and eight animals at 100 mg/kg.
(§2) The quantitative determination of the median effective (ED50) and toxic doses (TD50) was conducted at previously calculated times of peak effect. Groups of at least eight animals were tested using different doses of test compound until at least two points wee determined between 100 and 0% protection and minimal motor impairment.

[2] = test system: maximal electroshock (MES) induced seizure; assay: maximal electroshock (MES) seizure test, mice (ip); format: in vivo; conditions: for ED50: Mus musculus
From the text: as §1, §2

| Compound | RAT anticonvulsant ED50 MES ([1]; rat, oral (Table 6)) | MES, ED50 ([1]; rat, po, at time of peak effect) | MES, ED50 ([2]; mice, ip, at time of peak effect (hours in brackets)) | MOUSE anticonvulsant dose ED50 MES ([2]; mouse, i.p. (Table 6)) | ED50 ([1]; po, read-out: MES, ED50) | ED50 ([1]; po, read-out: RAT anticonvulsant ED50 MES) | Ratio to MES ([1]; rat, oral, Neurotox/MES (Table 6)) | PI protective index (TD50/MES ED50) ([1]; rat, po) | ED50 ([2]; ip, read-out: MES, ED50) | ED50 ([2]; ip, read-out: MOUSE anticonvulsant dose ED50 MES) | PI protective index (TD50/MES ED50) ([2]; mice, ip) | Ratio to MES ([2]; mouse, i.p., Neurotox/MES (Table 6)) |
| --- | --- | --- | --- | --- | --- | --- | --- | --- | --- | --- | --- | --- |
| COC[C@@H](NC(C)=O)C(=O)NCc1ccccc1 [Ex. 1, 2, (R)-N-Benzyl-2-Acetamide-3-methoxypropionamide] | 3.90 mg/kg | 3.9 [0.5] mg/kg | 4.5 [0.5] mg/kg | 4.46 mg/kg | – | – | – | – | – | – | – | – |
| CC(=O)NC(C)C(=O)NCc1ccccc1 (racemic) [compound 1, N-Acetyl-D,L-alanine-N′-benzylamide] | – | – | – | – | 24.2 mg/kg | 48.2 mg/kg | 20.8 | >20.8 | 76.5 mg/kg | 76.5 mg/kg | 5.9 | 5.9 |

Reference: patent USRE38551E1, “Anticonvulsant enantiomeric amino acid derivatives” (priority 1996, dated 2004)
